Consider ten compounds from article PMC3755381 (Australian journal of chemistry, 2012).

Common to all, as to assay type: biochemical
For experiment [1], the target named is PI3Kβ (Homo sapiens, UniProt P42338). The experiment can be described thus: PI3Kβ inhibition.
Experiment [2] deals with class I PI3K isoforms. Put plainly: Inhibition of PI3K isoforms. Conditions: for inhibition of PI3K: same compounds synthesized by compound 5 as key intermediate (no contaminant).
Experiment [3] addresses PI3Kγ (Homo sapiens, UniProt P48736). Put plainly: PI3Kγ inhibition.
The target in experiment [4] is PI3Kδ (Homo sapiens, UniProt O00329). Put plainly: PI3Kδ inhibition.
Experiment [5] deals with PI3Kα (Homo sapiens, UniProt P42336). Put plainly: PI3Kα inhibition.
The target of experiment [6] is PDE2 (Homo sapiens, UniProt O00408). The experiment can be described thus: PDE2 inhibition.
For experiment [7], the system named is PDE4. The experiment can be described thus: PDE4 inhibition. Conditions: for IC50: read-out: PDE4 inhibition IC50.

Some results are limits rather than exact numbers.

PDE2, sequence (O00408 whole entry): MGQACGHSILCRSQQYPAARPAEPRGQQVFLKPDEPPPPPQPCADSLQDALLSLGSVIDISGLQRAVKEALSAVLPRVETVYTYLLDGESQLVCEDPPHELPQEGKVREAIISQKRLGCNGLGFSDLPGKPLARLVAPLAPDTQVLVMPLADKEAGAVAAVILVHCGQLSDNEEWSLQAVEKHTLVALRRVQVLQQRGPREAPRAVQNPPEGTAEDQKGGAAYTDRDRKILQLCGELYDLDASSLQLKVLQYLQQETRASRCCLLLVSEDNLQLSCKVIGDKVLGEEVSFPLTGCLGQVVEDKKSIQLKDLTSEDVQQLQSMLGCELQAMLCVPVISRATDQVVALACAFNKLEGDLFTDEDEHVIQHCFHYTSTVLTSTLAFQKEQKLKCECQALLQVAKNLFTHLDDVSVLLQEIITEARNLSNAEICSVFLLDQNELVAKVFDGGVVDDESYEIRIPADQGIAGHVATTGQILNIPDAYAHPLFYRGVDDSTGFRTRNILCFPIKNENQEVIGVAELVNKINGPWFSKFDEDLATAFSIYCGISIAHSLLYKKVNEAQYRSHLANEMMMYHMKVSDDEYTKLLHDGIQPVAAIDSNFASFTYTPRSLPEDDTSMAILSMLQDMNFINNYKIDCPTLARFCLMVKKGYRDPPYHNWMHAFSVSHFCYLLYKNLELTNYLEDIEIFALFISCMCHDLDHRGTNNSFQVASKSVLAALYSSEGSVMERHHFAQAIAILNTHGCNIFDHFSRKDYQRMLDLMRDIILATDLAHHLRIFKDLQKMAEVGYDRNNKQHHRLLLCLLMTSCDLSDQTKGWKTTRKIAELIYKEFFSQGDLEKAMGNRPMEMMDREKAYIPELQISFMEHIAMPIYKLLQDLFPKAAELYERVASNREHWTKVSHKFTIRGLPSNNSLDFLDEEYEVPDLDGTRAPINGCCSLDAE
PI3Kβ, sequence (P42338 whole entry, species assumed, canonical isoform): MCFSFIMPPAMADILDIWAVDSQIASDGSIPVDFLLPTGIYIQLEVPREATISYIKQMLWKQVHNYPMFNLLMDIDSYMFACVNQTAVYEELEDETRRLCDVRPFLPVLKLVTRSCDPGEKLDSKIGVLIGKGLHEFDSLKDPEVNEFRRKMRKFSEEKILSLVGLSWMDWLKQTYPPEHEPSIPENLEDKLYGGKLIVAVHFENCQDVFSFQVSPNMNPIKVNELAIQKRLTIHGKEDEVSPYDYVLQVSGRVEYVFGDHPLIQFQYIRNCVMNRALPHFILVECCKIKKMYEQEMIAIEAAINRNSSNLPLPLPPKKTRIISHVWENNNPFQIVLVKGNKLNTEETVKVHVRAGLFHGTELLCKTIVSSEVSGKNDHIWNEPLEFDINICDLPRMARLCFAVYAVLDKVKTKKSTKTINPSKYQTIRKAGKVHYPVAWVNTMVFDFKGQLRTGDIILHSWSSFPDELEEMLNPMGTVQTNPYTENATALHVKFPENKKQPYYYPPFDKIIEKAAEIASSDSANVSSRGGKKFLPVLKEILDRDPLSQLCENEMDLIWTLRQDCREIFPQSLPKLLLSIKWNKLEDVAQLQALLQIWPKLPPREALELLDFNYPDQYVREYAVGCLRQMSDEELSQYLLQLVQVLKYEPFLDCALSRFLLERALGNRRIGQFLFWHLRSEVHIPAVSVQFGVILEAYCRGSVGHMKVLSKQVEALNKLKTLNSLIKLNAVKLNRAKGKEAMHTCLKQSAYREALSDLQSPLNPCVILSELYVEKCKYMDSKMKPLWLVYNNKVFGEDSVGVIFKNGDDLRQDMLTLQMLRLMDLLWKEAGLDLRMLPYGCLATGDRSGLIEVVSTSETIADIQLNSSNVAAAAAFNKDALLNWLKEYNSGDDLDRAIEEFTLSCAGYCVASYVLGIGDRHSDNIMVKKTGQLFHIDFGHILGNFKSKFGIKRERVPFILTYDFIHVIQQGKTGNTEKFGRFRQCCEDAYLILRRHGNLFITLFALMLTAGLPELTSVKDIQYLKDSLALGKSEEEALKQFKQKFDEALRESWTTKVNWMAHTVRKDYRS
PI3Kβ, sequence (P27986 whole entry partner, species assumed, canonical isoform): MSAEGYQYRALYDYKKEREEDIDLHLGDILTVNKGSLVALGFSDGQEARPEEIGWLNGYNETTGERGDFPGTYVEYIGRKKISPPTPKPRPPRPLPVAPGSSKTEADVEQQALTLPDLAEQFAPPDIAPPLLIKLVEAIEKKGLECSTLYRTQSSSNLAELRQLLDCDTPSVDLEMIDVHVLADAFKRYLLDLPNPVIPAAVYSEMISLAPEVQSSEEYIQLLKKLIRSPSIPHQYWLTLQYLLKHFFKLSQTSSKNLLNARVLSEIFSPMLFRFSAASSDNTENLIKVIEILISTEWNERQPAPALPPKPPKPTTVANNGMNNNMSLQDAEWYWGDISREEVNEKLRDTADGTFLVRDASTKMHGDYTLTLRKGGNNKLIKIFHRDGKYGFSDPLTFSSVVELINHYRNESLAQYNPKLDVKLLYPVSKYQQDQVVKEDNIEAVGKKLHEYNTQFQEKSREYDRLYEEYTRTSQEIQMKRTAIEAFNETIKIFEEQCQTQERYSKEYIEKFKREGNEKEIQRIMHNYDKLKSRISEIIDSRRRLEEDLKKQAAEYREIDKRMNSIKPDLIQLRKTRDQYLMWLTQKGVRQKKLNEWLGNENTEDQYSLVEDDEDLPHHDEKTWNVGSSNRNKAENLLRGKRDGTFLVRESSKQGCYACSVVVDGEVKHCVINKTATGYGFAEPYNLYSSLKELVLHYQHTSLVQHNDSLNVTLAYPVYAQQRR
PI3Kγ, sequence (P48736 whole entry, species assumed): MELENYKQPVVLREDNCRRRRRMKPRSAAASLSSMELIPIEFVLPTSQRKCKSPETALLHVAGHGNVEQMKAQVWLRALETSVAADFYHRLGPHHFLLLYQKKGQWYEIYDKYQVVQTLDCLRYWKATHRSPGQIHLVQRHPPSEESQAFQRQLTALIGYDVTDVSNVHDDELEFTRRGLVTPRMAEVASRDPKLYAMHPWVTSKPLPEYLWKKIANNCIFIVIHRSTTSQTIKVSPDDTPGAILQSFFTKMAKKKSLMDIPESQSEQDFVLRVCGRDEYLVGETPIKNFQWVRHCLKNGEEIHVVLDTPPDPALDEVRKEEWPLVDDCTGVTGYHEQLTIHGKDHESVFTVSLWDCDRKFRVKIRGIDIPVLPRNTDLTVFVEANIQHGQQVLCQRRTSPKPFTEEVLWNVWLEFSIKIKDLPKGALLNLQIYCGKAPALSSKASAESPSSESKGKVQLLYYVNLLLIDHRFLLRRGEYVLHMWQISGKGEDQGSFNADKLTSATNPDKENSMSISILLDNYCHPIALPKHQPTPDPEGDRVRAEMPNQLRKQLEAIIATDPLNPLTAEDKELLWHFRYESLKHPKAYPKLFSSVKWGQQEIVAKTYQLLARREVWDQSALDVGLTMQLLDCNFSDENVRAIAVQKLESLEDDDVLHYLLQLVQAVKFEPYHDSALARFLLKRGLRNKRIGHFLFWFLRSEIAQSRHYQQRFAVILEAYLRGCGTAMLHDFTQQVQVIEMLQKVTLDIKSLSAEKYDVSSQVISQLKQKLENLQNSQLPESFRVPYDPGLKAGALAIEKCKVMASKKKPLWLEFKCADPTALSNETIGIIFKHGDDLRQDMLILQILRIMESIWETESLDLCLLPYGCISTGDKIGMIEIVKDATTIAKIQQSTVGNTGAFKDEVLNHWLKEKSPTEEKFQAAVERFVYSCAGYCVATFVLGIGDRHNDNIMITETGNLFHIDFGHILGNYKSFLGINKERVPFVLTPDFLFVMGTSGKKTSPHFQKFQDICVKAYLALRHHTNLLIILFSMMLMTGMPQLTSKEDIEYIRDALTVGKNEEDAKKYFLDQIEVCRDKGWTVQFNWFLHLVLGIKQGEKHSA
PI3Kδ, sequence (O00329 whole entry, species assumed): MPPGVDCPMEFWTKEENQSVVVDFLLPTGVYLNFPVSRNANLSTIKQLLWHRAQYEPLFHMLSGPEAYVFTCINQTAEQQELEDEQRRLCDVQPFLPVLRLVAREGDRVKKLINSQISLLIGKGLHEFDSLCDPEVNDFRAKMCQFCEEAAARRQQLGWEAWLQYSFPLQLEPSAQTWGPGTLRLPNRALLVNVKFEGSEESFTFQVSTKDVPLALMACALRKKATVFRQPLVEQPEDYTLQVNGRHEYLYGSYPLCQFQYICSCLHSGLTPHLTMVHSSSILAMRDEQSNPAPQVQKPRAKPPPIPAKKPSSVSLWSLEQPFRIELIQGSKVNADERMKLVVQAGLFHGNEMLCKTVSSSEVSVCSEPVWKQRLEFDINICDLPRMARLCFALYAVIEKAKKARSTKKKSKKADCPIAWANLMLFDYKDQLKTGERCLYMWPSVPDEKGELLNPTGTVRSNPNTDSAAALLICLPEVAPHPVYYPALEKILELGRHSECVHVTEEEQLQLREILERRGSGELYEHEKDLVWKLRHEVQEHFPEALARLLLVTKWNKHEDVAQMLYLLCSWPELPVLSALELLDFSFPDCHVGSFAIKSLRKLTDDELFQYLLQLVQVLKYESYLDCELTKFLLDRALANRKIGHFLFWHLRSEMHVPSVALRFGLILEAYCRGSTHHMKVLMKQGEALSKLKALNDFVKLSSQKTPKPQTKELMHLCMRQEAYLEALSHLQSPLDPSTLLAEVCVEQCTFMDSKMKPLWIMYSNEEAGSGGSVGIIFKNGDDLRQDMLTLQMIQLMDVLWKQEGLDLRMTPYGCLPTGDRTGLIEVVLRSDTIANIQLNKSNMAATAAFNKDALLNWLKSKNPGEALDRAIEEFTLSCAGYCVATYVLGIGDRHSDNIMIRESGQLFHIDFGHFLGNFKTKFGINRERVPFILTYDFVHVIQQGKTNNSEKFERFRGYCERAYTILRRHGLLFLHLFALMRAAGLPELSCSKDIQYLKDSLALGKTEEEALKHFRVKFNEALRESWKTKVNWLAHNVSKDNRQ
PI3Kδ, sequence (P27986 whole entry partner, species assumed): as the sequence (P27986 whole entry partner, species assumed, canonical isoform) above

For `O=C1NC(=O)/C(=C/c2ccc3c(c2)OCO3)S1` [Compound 2, (Z)-5-(Benzo[d][1,3]dioxol-5-ylmethylene) thiazolidine-2,4-dione, reference compound], the values for the concentration for half-maximal inhibition (IC50) in experiment [1] and in experiment [3] were 0.6 µM and 0.04 µM, respectively. In addition, the “inhibition of PI3K isoforms (in words)” value in experiment [2] is reported as “potent inhibitor”.
For the compound `O=C1NC(=S)/C(=C/c2ccc3c(c2)OCO3)S1` [Compound 4, (Z)-5-(Benzo[d][1,3]dioxol-5-ylmethylene)-4-thioxothiazolidin-2-one], the IC50 in experiment [4] was 0.76 µM; in experiment [1] it was 0.15 µM; in experiment [3] it was 0.12 µM.
On to `CSC1=NC(=O)S/C1=C\c1ccc2c(c1)OCO2` [Compound 5, (Z)-5-(Benzo[d][1,3]dioxol-5-ylmethylene)-4-(methylthio)thiazol-2(5H)-one], for which the half-maximal inhibitory concentration (IC50) in experiment [4] is 0.038 µM; in experiment [1], over 1 µM; in experiment [5], 0.056 µM; in experiment [3], 0.06 µM.
With `C[C@H](/N=C1\NC(=O)S\C1=C/c1ccc2c(c1)OCO2)C(=O)O` [Compound 7aa, (S)-2-((Z)-((Z)-5-(Benzo[d][1,3]dioxol-5-ylmethylene)-2-oxothiazolidin-4-ylidene)amino)propanoic Acid], the IC50 in experiment [4] was found to be 62 µM; in experiment [1], 94 µM; in experiment [5], 19 µM; in experiment [3] it was 14.5 µM.
As for `O=C1NC(=N\[C@@H](Cc2c[nH]c3ccccc23)C(=O)O)/C(=C/c2ccc3c(c2)OCO3)S1` [Compound 7ab], the IC50 amounted to 43 µM in experiment [4], 80 µM in experiment [1], 26 µM in experiment [5] and 11 µM in experiment [3].
Consider `O=C1NC(=N\CCc2ccc(O)cc2)/C(=C/c2ccc3c(c2)OCO3)S1` [Compound 7e, (4Z,5Z)-5-(Benzo[d][1,3]dioxol-5-ylmethylene)-4-((4-hydroxyphenethyl)imino)thiazolidin-2-one], for which, in experiment [2], the “inhibition of PI3K” value is “no inhibition”.
`O=C1NC(=N\C2CCCC2)/C(=C/c2ccc3c(c2)OCO3)S1` [Compound 7f, (4Z,5Z)-5-(Benzo[d][1,3]dioxol-5-ylmethylene)-4-(cyclopentylimino)thiazolidin-2-one]: the “inhibition of PI3K” value in experiment [2] was “no inhibition”.
Turning to `COc1ccc(C/N=C2\NC(=O)S\C2=C/c2ccc3c(c2)OCO3)cc1OC` [Compound 7p, (4Z,5Z)-5-(Benzo[d][1,3]dioxol-5-ylmethylene)-4-((3,4-dimethoxybenzyl)imino)thiazolidin-2-one], the IC50 was over 100 µM in experiment [4]; over 100 µM in experiment [1]; over 100 µM in experiment [5]; over 100 µM in experiment [3]; 4.7 µM in experiment [6]; 5.1 µM in experiment [7]. Further, the “inhibition of PI3K isoforms (in words)” value in experiment [2] is given as “no inhibition”.
For the compound `C/N=C1\NC(=O)S\C1=C/c1ccc2c(c1)OCO2` [Compound 7x, (4Z,5Z)-5-(Benzo[d][1,3]dioxol-5-ylmethylene)-4-(methylimino)thiazolidin-2-one], the IC50 was over 100 µM in experiment [4]; over 100 µM in experiment [1]; 90 µM in experiment [5]; over 100 µM in experiment [3]; over 10 µM in experiment [6]; over 10 µM in experiment [7]. For the same compound, in experiment [6], the “activity against PDE2 (in words)” value is “virtually inactive”. Also, the “activity against PDE4 (in words)” value in experiment [7] was “virtually inactive”.
Consider `CC(O)C/N=C1\NC(=O)S\C1=C/c1ccc2c(c1)OCO2` (stereo not shown) [Compound 7z, (4Z,5Z)-5-(Benzo[d][1,3]dioxol-5-ylmethylene)-4-((2-hydroxypropyl)imino)thiazolidin-2-one], for which the IC50 in experiment [4] was over 100 µM; in experiment [1] it was over 100 µM; in experiment [5] it was over 100 µM; in experiment [3], over 100 µM; in experiment [6], over 10 µM; in experiment [7], over 10 µM. Also, in experiment [6], the “activity against PDE2 (in words)” value is “virtually inactive”. Besides, the “activity against PDE4 (in words)” value in experiment [7] was “virtually inactive”.
